Measured values from BigSolDB 2.1.

Settings: 298.15 K

Compound: CC(=O)Oc1ccccc1C(=O)O
- solubility (mole fraction) (in 1,4-dioxane): 0.126
- solubility (mole fraction) (in 2-ethylhexanol): 0.0303
- solubility (mole fraction) (in 2-methyl-1-butanol): 0.0344
- solubility (mole fraction) (in 2-methyl-1-pentanol): 0.0321
- solubility (mole fraction) (in 2-pentanol): 0.0435
- solubility (mole fraction) (in 3,7-dimethyl-1-octanol): 0.0304
- solubility (mole fraction) (in 4-methyl-2-pentanol): 0.0393
- solubility (mole fraction) (in MTBE): 0.0401
- solubility (mole fraction) (in THF): 0.19
- solubility (mole fraction) (in dibutyl ether): 0.00709
- solubility (mole fraction) (in diethyl ether): 0.0353
- solubility (mole fraction) (in diisopropyl ether): 0.0122
- solubility (mole fraction) (in ethyl acetate): 0.0458
- solubility (mole fraction) (in isobutanol): 0.0319
- solubility (mole fraction) (in isopentanol): 0.0381
- solubility (mole fraction) (in isopropanol): 0.0523
- solubility (mole fraction) (in methyl acetate): 0.0529
- solubility (mole fraction) (in methyl butyrate): 0.0297
- solubility (mole fraction) (in n-butanol): 0.0462
- solubility (mole fraction) (in n-butyl acetate): 0.0335
- solubility (mole fraction) (in n-decanol): 0.0365
- solubility (mole fraction) (in n-heptanol): 0.0389
- solubility (mole fraction) (in n-hexanol): 0.0397
- solubility (mole fraction) (in n-octanol): 0.0358
- solubility (mole fraction) (in n-pentanol): 0.0397
- solubility (mole fraction) (in n-pentyl acetate): 0.0268
- solubility (mole fraction) (in n-propanol): 0.0498
- solubility (mole fraction) (in propylene carbonate): 0.0313
- solubility (mole fraction) (in sec-butanol): 0.0536
- solubility (mole fraction) (in tert-amyl alcohol): 0.0818
- solubility (mole fraction) (in tert-butanol): 0.0684
